# Assay results: patent publication US20200289474A1, “METHODS OF TREATING PAIN WITH A THIAZOLINE ANTI-HYPERALGESIC” (priority 2019, published 2020)
# Entries after “also recorded” stand apart in the source; their conditions may differ.
# Key:
# [1] = rat 28-day GLP repeat dose PO study (toxicokinetics); assay type: in vivo
# Description: A 28-day GLP repeat dose study with Compound 1 in rats was conducted with oral gavage doses of 0, 500, 1000 or 2000 mg/kg/day at a dosing volume of 10 mL/kg. The vehicle was 0.5% HPMC. There were 15 rats/sex in the control and high dose groups (5/sex for a 14-day recovery period) while the low and mid doses consisted of 10 rats/sex. Satellite groups of rats/sex/group for toxicokinetics were included.
# Rats in Group 1 (Vehicle Control) were bled once at approximately 1 hour post-dose on those days.
# [2] = dog 7-day repeat dose PO study; assay type: in vivo; settings: dog 7 Day PO, N = 1
# Description: The objective was to develop a preliminary toxicity profile of Compound 1 following daily oral (gavage) administration for 7 days to male and female dogs to support dose selection for a 28-day toxicity study in dogs. Doses were selected based on the results of the MTD phase. Dose levels were 0 (Vehicle Control), 200, 350 and 400 mg/kg (1 dog/sex/group). The vehicle was 0.5% aqueous HPMC.
# The animals used in this study were returned to the holding colony
# stability in hepatocytes = assay type: in vitro ADME
# Source text: Further metabolism work in additional species will be undertaken.
# HEK293 cells = assay: cytotoxicity by lactate dehydrogenase (LDH) release; assay type: cell-based
# [3] = female, rat, in vivo, po, 500 mg/kg
# [4] = rat 28-day PO, Day 1, F, 1000 mg/kg
# [5] = rat 28-day PO, Day 1, F, 2000 mg/kg
# [6] = rat 28-day PO, Day 1, M, 500 mg/kg
# [7] = rat 28-day PO, Day 1, M, 1000 mg/kg
# [8] = rat 28-day PO, Day 1, M, 2000 mg/kg
# [9] = rat 28-day PO, Day 14, F, 500 mg/kg
# [10] = rat 28-day PO, Day 14, F, 1000 mg/kg
# [11] = rat 28-day PO, Day 14, F, 2000 mg/kg
# [12] = rat 28-day PO, Day 14, M, 500 mg/kg
# [13] = rat 28-day PO, Day 14, M, 1000 mg/kg
# [14] = rat 28-day PO, Day 14, M, 2000 mg/kg
# [15] = rat 28-day PO, Day 28, F, 500 mg/kg
# [16] = rat 28-day PO, Day 28, F, 1000 mg/kg
# [17] = rat 28-day PO, Day 28, F, 2000 mg/kg
# [18] = rat 28-day PO, Day 28, M, 500 mg/kg
# [19] = rat 28-day PO, Day 28, M, 1000 mg/kg
# [20] = rat 28-day PO, Day 28, M, 2000 mg/kg
compound,measurement,setting,value
"CC1(C)SC(Nc2ccccc2O)=N[C@@H]1C(=O)O.Cl [Compound 1, (R)-2-(2-hydroxyphenylamino)-5,5-dimethyl-4,5-dihydrothiazole-4-carboxylic acid mono-hydrochloride]",Cmax at 28 days,"[1]; both sexes, in vivo, po, rat 28-day pivotal study, at some doses",> 100 µg/mL
same,Tmax at 28 days,"[1]; both sexes, in vivo, po, rat 28-day study (summary)",≤ 1 h
same,CL/F at 28 days,"[1]; both sexes, in vivo, rat 28-day PO, read-out: overall mean CL/F (converted)",35.2 mL/min/kg
same,half-life at 28 days,"[1]; both sexes, in vivo, rat 28-day PO, read-out: overall mean t1/2 (converted)",4.24 h
same,half-life,"[1]; both sexes, rat, in vivo, po",3 to 8 h
same,overall mean V/F,"[1]; both, rat, in vivo, po, 28 days",12.5 L/kg
same,AUC,[1]; [3],298 µg·h/mL
same,AUC(0-inf),[1]; [3],299 µg·h/mL
same,CL/F,[1]; [3],27.8 mL/min/kg
same,Cmax,[1]; [3],74.8 µg/mL
same,Vd/F,[1]; [3],8.1 L/kg
same,half-life,[1]; [3],3.36 h
same,tmax,[1]; [3],2 h
same,half-life,"[1]; female, rat, in vivo, po, 2000 mg/kg",8.05 h
same,CL/F,"[1]; male, rat, in vivo, po, 1000 mg/kg",38.7 mL/min/kg
same,CL/F,"[1]; male, rat, in vivo, po, 2000 mg/kg",35.3 mL/min/kg
same,AUCINF,[1]; [4],794 µg·h/mL
same,AUCTAU,[1]; [4],788 µg·h/mL
same,CL/F (CLz/F),[1]; [4],21 mL/min/kg
same,Cmax,[1]; [4],108 µg/mL
same,t1/2,[1]; [4],3.39 h
same,AUCINF,[1]; [5],1324 µg·h/mL
same,AUCTAU,[1]; [5],1161 µg·h/mL
same,CL/F (CLz/F),[1]; [5],25.2 mL/min/kg
same,Cmax,[1]; [5],118 µg/mL
same,AUCINF,[1]; [6],275 µg·h/mL
same,AUCTAU,[1]; [6],270 µg·h/mL
same,CL/F (CLz/F),[1]; [6],30.3 mL/min/kg
same,Cmax,[1]; [6],55.1 µg/mL
same,t1/2,[1]; [6],4.18 h
same,AUCINF,[1]; [7],460 µg·h/mL
same,AUCTAU,[1]; [7],456 µg·h/mL
same,CL/F (CLz/F),[1]; [7],36.2 mL/min/kg
same,Cmax,[1]; [7],52.7 µg/mL
same,t1/2,[1]; [7],3.46 h
same,AUCINF,[1]; [8],771 µg·h/mL
same,AUCTAU,[1]; [8],768 µg·h/mL
same,CL/F (CLz/F),[1]; [8],43.2 mL/min/kg
same,Cmax,[1]; [8],83.1 µg/mL
same,t1/2,[1]; [8],2.81 h
same,AUCINF,[1]; [9],225 µg·h/mL
same,AUCTAU,[1]; [9],223 µg·h/mL
same,CL/F (CLss/F),[1]; [9],37.5 mL/min/kg
same,Cmax,[1]; [9],75.0 µg/mL
same,t1/2,[1]; [9],4.20 h
same,AUCINF,[1]; [10],437 µg·h/mL
same,AUCTAU,[1]; [10],430 µg·h/mL
same,CL/F (CLss/F),[1]; [10],38.7 mL/min/kg
same,Cmax,[1]; [10],96.3 µg/mL
same,t1/2,[1]; [10],4.19 h
same,AUCINF,[1]; [11],952 µg·h/mL
same,AUCTAU,[1]; [11],942 µg·h/mL
same,CL/F (CLss/F),[1]; [11],35.3 mL/min/kg
same,Cmax,[1]; [11],127 µg/mL
same,t1/2,[1]; [11],3.56 h
same,AUCINF,[1]; [12],258 µg·h/mL
same,AUCTAU,[1]; [12],244 µg·h/mL
same,CL/F (CLss/F),[1]; [12],34.2 mL/min/kg
same,Cmax,[1]; [12],45.8 µg/mL
same,t1/2,[1]; [12],6.27 h
same,AUCINF,[1]; [13],296 µg·h/mL
same,AUCTAU,[1]; [13],293 µg·h/mL
same,Cmax,[1]; [13],51.9 µg/mL
same,t1/2,[1]; [13],3.68 h
same,AUCINF,[1]; [14],709 µg·h/mL
same,AUCTAU,[1]; [14],701 µg·h/mL
same,Cmax,[1]; [14],75.6 µg/mL
same,t1/2,[1]; [14],3.66 h
same,AUCINF,[1]; [15],303 µg·h/mL
same,AUCTAU,[1]; [15],297 µg·h/mL
same,CL/F (CLss/F),[1]; [15],28 mL/min/kg
same,Cmax,[1]; [15],86.4 µg/mL
same,t1/2,[1]; [15],4.62 h
same,tmax,[1]; [15],0.5 h
same,AUCINF,[1]; [16],741 µg·h/mL
same,AUCTAU,[1]; [16],736 µg·h/mL
same,CL/F (CLss/F),[1]; [16],22.7 mL/min/kg
same,Cmax,[1]; [16],128 µg/mL
same,t1/2,[1]; [16],3.20 h
same,AUCINF,[1]; [17],1327 µg·h/mL
same,AUCTAU,[1]; [17],1305 µg·h/mL
same,CL/F (CLss/F),[1]; [17],25.5 mL/min/kg
same,Cmax,[1]; [17],139 µg/mL
same,t1/2,[1]; [17],3.93 h
same,tmax,[1]; [17],0.5 h
same,AUCINF,[1]; [18],333 µg·h/mL
same,AUCTAU,[1]; [18],305 µg·h/mL
same,CL/F (CLss/F),[1]; [18],27.3 mL/min/kg
same,Cmax,[1]; [18],48.6 µg/mL
same,t1/2,[1]; [18],6.90 h
same,AUCINF,[1]; [19],337 µg·h/mL
same,AUCTAU,[1]; [19],334 µg·h/mL
same,CL/F (CLss/F),[1]; [19],49.8 mL/min/kg
same,Cmax,[1]; [19],47.9 µg/mL
same,t1/2,[1]; [19],3.31 h
same,AUCINF,[1]; [20],731 µg·h/mL
same,AUCTAU,[1]; [20],724 µg·h/mL
same,CL/F (CLss/F),[1]; [20],46 mL/min/kg
same,Cmax,[1]; [20],83.6 µg/mL
same,t1/2,[1]; [20],3.53 h
same,AUC0-last,"[2]; Day 1, 200 mg/kg, F",582 µg·h/mL
same,Cmax,"[2]; Day 1, 200 mg/kg, F",152 µg/mL
same,t1/2,"[2]; Day 1, 200 mg/kg, F",1.3 h
same,AUC0-last,"[2]; Day 1, 200 mg/kg, M",538 µg·h/mL
same,Cmax,"[2]; Day 1, 200 mg/kg, M",150 µg/mL
same,t1/2,"[2]; Day 1, 200 mg/kg, M",1.1 h
same,AUC0-last,"[2]; Day 1, 350 mg/kg, F",834 µg·h/mL
same,Cmax,"[2]; Day 1, 350 mg/kg, F",228 µg/mL
same,t1/2,"[2]; Day 1, 350 mg/kg, F",1.2 h
same,AUC0-last,"[2]; Day 1, 350 mg/kg, M",613 µg·h/mL
same,Cmax,"[2]; Day 1, 350 mg/kg, M",176 µg/mL
same,t1/2,"[2]; Day 1, 350 mg/kg, M",1.1 h
same,AUC0-last,"[2]; Day 1, 400 mg/kg, F",464 µg·h/mL
same,Cmax,"[2]; Day 1, 400 mg/kg, F",109 µg/mL
same,t1/2,"[2]; Day 1, 400 mg/kg, F",3.9 h
same,AUC0-last,"[2]; Day 1, 400 mg/kg, M",657 µg·h/mL
same,Cmax,"[2]; Day 1, 400 mg/kg, M",167 µg/mL
same,t1/2,"[2]; Day 1, 400 mg/kg, M",1.2 h
same,AUC0-last,"[2]; Day 7, 200 mg/kg, F",411 µg·h/mL
same,Cmax,"[2]; Day 7, 200 mg/kg, F",103 µg/mL
same,t1/2,"[2]; Day 7, 200 mg/kg, F",1.5 h
same,AUC0-last,"[2]; Day 7, 200 mg/kg, M",540 µg·h/mL
same,Cmax,"[2]; Day 7, 200 mg/kg, M",121 µg/mL
same,t1/2,"[2]; Day 7, 200 mg/kg, M",1.4 h
same,AUC0-last,"[2]; Day 7, 350 mg/kg, F",738 µg·h/mL
same,Cmax,"[2]; Day 7, 350 mg/kg, F",207 µg/mL
same,t1/2,"[2]; Day 7, 350 mg/kg, F",2.4 h
same,tmax,"[2]; Day 7, 350 mg/kg, F",0.5 h
same,AUC0-last,"[2]; Day 7, 350 mg/kg, M",591 µg·h/mL
same,Cmax,"[2]; Day 7, 350 mg/kg, M",184 µg/mL
same,t1/2,"[2]; Day 7, 350 mg/kg, M",1.2 h
same,AUC0-last,"[2]; Day 7, 400 mg/kg, F",751 µg·h/mL
same,Cmax,"[2]; Day 7, 400 mg/kg, F",183 µg/mL
same,t1/2,"[2]; Day 7, 400 mg/kg, F",2.5 h
same,AUC0-last,"[2]; Day 7, 400 mg/kg, M",210 µg·h/mL
same,Cmax,"[2]; Day 7, 400 mg/kg, M",69 µg/mL
same,t1/2,"[2]; Day 7, 400 mg/kg, M",1.3 h
same,stability in hepatocytes,"stability in hepatocytes; dog hepatocytes, mono-hydrochloride",stable; also recorded: metabolic stability
same,stability in hepatocytes,"stability in hepatocytes; human hepatocytes, mono-hydrochloride",stable; also recorded: metabolic stability
same,stability in hepatocytes,stability in hepatocytes; monkey hepatocytes,metabolic stability
same,stability in hepatocytes,"stability in hepatocytes; rat hepatocytes, mono-hydrochloride",stable; also recorded: metabolic stability
same,cytotoxicity (LDH release),HEK293 cells,less than 25%
